Experimental data reported in patent publication US4317770A, “D-amino acid analogs of beta-endorphin” (Hoffmann-La Roche Inc., priority 1977, dated 1982).
“Also recorded” adds a separate entry of the source.

How the values were obtained:
mice [1] = test: analgesic potency in mice, tail-flick method, icv injection; assay type: in vivo, mouse; settings: for AD50 / Relative Potency (analgesic potency) / analgesic activity: mice, tail-flick; for AD50: 95% confidence limits in parentheses; for Relative Potency (analgesic potency): calculated on molar basis using the AD50 of βc-endorphin as 100%; for order of activity in the mouse tail flick method: human endorphin analogs vs camel endorphin analogs, route not stated
Method: (§1) The analgesic properties of β-endorphin and its analogs were also assessed in mice by the tail-flick method of D'Amour and Smith, supra. The peptides, dissolved in saline, were injected either icv in a volume of 5 μl, according to the method described by Haley and McCormick, Brit. J. Pharmacol. 12, 12 (1957) or iv via the tail vein. To evaluate this analgesic response, a control latency (T0) was obtained from the mean of two latencies determined prior to drug injections, and the test latencies (T1) were determined at various times after injection for each animal. "Percent analgesic" was calculated as [(T1 -T0)/[…]]×100, where the cut off time (T2) was 10 sec.

[2] = cited from earlier work; for in vivo analgesic activity (duration): injected intracranially / centrally
[3] = system: myenteric plexus longitudinal muscle preparation from guinea pig ileum; test: opiate activity, guinea pig ileum assay (electrically stimulated); assay type: cell-based; settings: for IC50: in vitro; for Relative Potency: relative to βc-endorphin = 100; for order of activity in the guinea pig ileum assay: human endorphin analogs vs camel endorphin analogs
Method: (§2) The opiate activities of the analogs relative to βc -endorphin were measured in vitro in the guinea pig ileum (Brit. J. Pharmacol. 39, 398 (1970)) and in vivo by icv and iv injections using the tail-flick method (D'Amour and Smith, J. Pharmacol. Exp. Ther. 72,74 (1941). The results are summarized in Tables 2 and 3.
The opiate activity was assayed in vitro by electrically stimulated myenteric plexus longitudinal muscle preparation from guinea pig ileum by the method of Kosterlitz et al., supra.

mice [4] = test: analgesic potency in mice, tail-flick method, iv injection; assay type: in vivo, mouse; settings: for inhibition of tail-flick response: iv
Method: as §2, §1

[5] = injected into the peripheral system; cited from earlier work
leucine aminopeptidase = settings: compared with enkephalin; cited from earlier work

CN1CC[C@]23c4c5ccc(O)c4O[C@H]2[C@@H](O)C=C[C@H]3[C@H]1C5.O=S(=O)(O)O [Morphine sulfate, reference compound]
AD50 (mice [1]; icv): 0.42 (0.36-0.49) μg/25 g mouse

CC(C)C[C@H](NC(=O)[C@H](Cc1ccccc1)NC(=O)CNC(=O)CNC(=O)[C@@H](N)Cc1ccc(O)cc1)C(=O)O [enkephalin]
in vivo analgesic activity (duration) [2]: short duration

[D-Ala^2 ]-enkephalin
in vivo analgesic activity (duration) [2]: long-lasting analgesia

[D-Ala^2 ]-β-enkephalinamide
in vivo analgesic activity (duration) [2]: long-lasting analgesia | analgesic activity compared with enkephalin ([2]; relative to enkephalin, route not stated at the place): greater analgesic activity

[D-Ala^2 ]-βc -endorphin [[D-Ala^2]-βc -EP]
activity in in vitro assay relative to parent molecule ([3]; guinea pig ileum): 43% | IC50 ([3]; guinea pig ileum): 63 nM | Relative Potency [3]: 43 | Relative Potency (analgesic potency) (mice [1]): 100.0% | Relative Potency (analgesic potency) (mice [1]; listed as [D-Ala^2 ]-βc -endorphin): 100% | antagonism of analgesic response by naloxone (mice [1]; icv, doses of 0.11 to 0.42 μg): blocked by naloxone | duration of analgesic response (mice [1]; icv, doses of 0.11 to 0.42 μg): 30 to 90 min | antagonism of analgesic response by naloxone (mice [1]; icv, higher dose): also blocked by naloxone | duration of response at higher dose (mice [1]; icv, higher dose): prolonged | analgesic activity (mice [1]; icv): little alteration in analgesic activity | analgesic activity (mice [1]; icv, listed as [D-Ala^2 ]-β-endorphin): most significant analgesic activity; also recorded: equipotent to βc -endorphin; also recorded: dose-related increase in analgesic response | AD50 (mice [1]; icv): 0.11 (0.08-0.17) μg/25 g mouse | inhibition of tail-flick response (mice [4]; 25.5 mg/kg): not active

[D-Ala^2 ]-βh -endorphin
order of activity in the guinea pig ileum assay [3]: same order of activity | order of activity in the mouse tail flick method (mice [1]): same order of activity

[D-Met^5 ]-βc -endorphin [[D-Met^5]-βc -EP]
IC50 ([3]; guinea pig ileum): 660 nM | Relative Potency [3]: 4 | Relative Potency (analgesic potency) (mice [1]): 1.0% | analgesic activity (mice [1]; icv): still possesses analgesic activity | AD50 (mice [1]; icv): 11.48 (7.17-18.36) μg/25 g mouse | inhibition of tail-flick response (mice [4]; even at 120 mg/kg): not active

[D-Met^5 ]-βh -endorphin
order of activity in the guinea pig ileum assay [3]: same order of activity | order of activity in the mouse tail flick method (mice [1]): same order of activity

[D-Phe^4 ]-βc -endorphin [[D-Phe^4]-βc -EP]
IC50 ([3]; guinea pig ileum): 670 nM | Relative Potency [3]: 4 | Relative Potency (analgesic potency) (mice [1]): < 0.3% | behavioural effect (hyperreactivity) (mice [1]; icv, doses up to 43 μg): hyperreactivity to touch or vocal stimulation | inhibition of tail-flick response (mice [1]; icv, doses up to 43 μg): not active | AD50 (mice [1]; icv): > 43 μg/25 g mouse

[D-Phe^4 ]-βh -endorphin
order of activity in the guinea pig ileum assay [3]: same order of activity | order of activity in the mouse tail flick method (mice [1]): same order of activity

[D-Tyr^1 ]-βc -endorphin [[D-Tyr^1]-βc -EP]
IC50 ([3]; guinea pig ileum): 2900 nM | Relative Potency [3]: ≤ 1 | Relative Potency (analgesic potency) (mice [1]): 0.5% | AD50 (mice [1]; icv): 22.5 (13.4-37.8) μg/25 g mouse

[D-Tyr^1 ]-βh -endorphin
order of activity in the guinea pig ileum assay [3]: same order of activity | order of activity in the mouse tail flick method (mice [1]): same order of activity

β-endorphin
duration of action (mice [4]; intravenous, comparison of β-endorphin with D-Ala^2 analog): longer than its D-Ala^2 analog | AD50 (mice [4]; iv injection): 9.4 mg/kg | analgesic activity after iv injection (mice [4]; iv injection): potent analgesic | in vivo analgesic activity (duration) [2]: long lasting | in vivo analgesic activity, peripheral injection [5]: displays in vivo analgesic activity when injected into the peripheral system

βc -endorphin: β-endorphin having a sequence derived from camel; synthesized as control (YGGFMTSEKSQTPLVTLFKNAIIKNAHKKGQ; Beta-endorphin; UniProt P01203 1-31, looked up) [reference compound]
IC50 ([3]; guinea pig ileum): 27 nM | Relative Potency [3]: 100 | Relative Potency (analgesic potency) (mice [1]): 100.0% | analgesic activity (mice [1]; icv): much more active than morphine | AD50 (mice [1]; icv): 0.11 (0.07-0.17) μg/25 g mouse | resistance to attack by leucine aminopeptidase (leucine aminopeptidase): substantially more resistant to attack by leucine aminopeptidase than is enkephalin
